Test systems include CCRF-CEM; HCT-116; HL-60; HOP-62; HT-29; IGROV-1; K562; MDA-N; NCI-H460; NCI/ADR-RES; OVCAR-5; OVCAR-8; SF-295; SK-MEL-28; SR; SW-620; T47D; U-251; UO-31.
Common to all, as to assay: inhibition of tumour cell growth, NCI panel, 48 h

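Where inhibition never reached the appropriate level, the endpoint shown equals the highest concentration tested. Otherwise, values were interpolated linearly from a five-concentration, 48-hour dose response in 96-well plates. The concentration for 50% growth inhibition is given as GI50.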 Activity calls are given as the source filed them. No stated cut-off is given here; in the data, active = GI50 up to about 1.1 µM and inactive = higher. *1 amine or outer side, *2 acyl side, *3 side chain or, on linkers, in order; H or OH if unused. Where a SMILES comes first, the peptide text is derived from it. Bridges are numbered along the chain shown (N, C = ends). Roman numbers before positions name the chains, in order. [ ]: non-standard residue; d: D form. Actinocin(9to1) = Cc1c2oc3c(C)ccc(C(=O)[*:1])c3nc-2c(C(=O)[*:2])c(N)c1=O; NMeV = CN[CH](C(=O)O)C(C)C; Sar = CNCC(=O)O

As for `COc1cc(OC)c(OC)cc1/C=C1\C=Cc2ccccc21`, the GI50 in the test on CCRF-CEM was 16.3 µM (inactive); in the test with HCT-116, 5.65 µM (inactive); in the test on HL-60 it was 5.82 µM (inactive); in the test on HOP-62, 15.9 µM (inactive); with HT-29, 11.7 µM (inactive); with IGROV-1, 26.9 µM (inactive). The GI50 in the test with K562 is 5.5 µM (inactive); with MDA-N it was 9.18 µM (inactive); with NCI-H460, 10.3 µM (inactive); in the test with NCI/ADR-RES, 17.4 µM (inactive); with OVCAR-5 it was 12.5 µM (inactive); in the test on OVCAR-8, 31.7 µM (inactive). Further, the GI50 with SF-295 was 18.5 µM (inactive); with SK-MEL-28 it was 15.7 µM (inactive); with SR, 5.04 µM (inactive); in the test with SW-620, 11.1 µM (inactive); with T47D, 7.89 µM (inactive); with U-251 it was 9.12 µM (inactive). Also, in the test with UO-31, the GI50 was 16.3 µM (inactive).
For the compound `CC(C#N)N(CCc1ccccc1)C(=O)c1ccccc1` (stereo unspecified), the GI50 in the test with CCRF-CEM, with HCT-116, in the test with HL-60, in the test with HOP-62, in the test on HT-29 and in the test with IGROV-1 was > 100 µM (inactive) throughout. Moreover, the GI50 in the test with K562, with MDA-N, in the test on NCI/ADR-RES, in the test with OVCAR-5, in the test with OVCAR-8 and in the test on SF-295 was > 100 µM (inactive) throughout. The GI50 was > 100 µM (inactive) in the test on SR; > 100 µM (inactive) in the test with SW-620; 39.2 µM (inactive) in the test with T47D; > 100 µM (inactive) in the test on U-251; 84.9 µM (inactive) in the test with UO-31.
For the compound `CCc1n[nH]c(=O)n1-n1c(C)ccc1C`, the GI50 with CCRF-CEM, in the test with HCT-116, in the test with HOP-62, in the test with HT-29, with IGROV-1 and with K562 was > 100 µM (inactive) throughout. The GI50 in the test on MDA-N, with NCI-H460, in the test on NCI/ADR-RES, in the test with OVCAR-5, in the test on OVCAR-8 and in the test on SF-295 was > 100 µM (inactive) in each case. The GI50 in the test on SK-MEL-28, in the test on SR, in the test on SW-620, in the test with T47D, in the test on U-251 and in the test with UO-31 was > 100 µM (inactive) each time.
`O=C(O)c1cc(CCc2ccc(O)c(O)c2)ccc1O`: the GI50 was > 100 µM (inactive) in the test on CCRF-CEM; > 100 µM (inactive) in the test on HCT-116; 23.2 µM (inactive) in the test on HL-60; > 100 µM (inactive) in the test with HOP-62; > 100 µM (inactive) with HT-29; > 100 µM (inactive) with IGROV-1. For the same compound, the GI50 in the test on K562 is 21.3 µM (inactive); in the test on MDA-N, 18.4 µM (inactive); with NCI-H460, > 100 µM (inactive); in the test with NCI/ADR-RES, > 100 µM (inactive); in the test with OVCAR-5 it was > 100 µM (inactive); in the test on OVCAR-8 it was > 100 µM (inactive). In addition, the GI50 with SF-295 is > 100 µM (inactive); in the test on SR it was 24.4 µM (inactive); in the test with SW-620, > 100 µM (inactive); in the test on T47D, > 100 µM (inactive); with U-251, > 100 µM (inactive); in the test on UO-31, > 100 µM (inactive).
For the compound `CCCSc1cc(Cl)c(C)cc1S(=O)(=O)n1ccnc1O`, the GI50 in the test with CCRF-CEM, in the test on HCT-116, in the test on HOP-62, in the test with HT-29, in the test on IGROV-1 and in the test with K562 was > 100 µM (inactive) each time. In addition, the GI50 in the test on MDA-N, in the test with NCI-H460, in the test on NCI/ADR-RES, in the test on OVCAR-5, in the test with OVCAR-8 and in the test with SF-295 was > 100 µM (inactive) throughout. The GI50 with SK-MEL-28, in the test on SR, in the test with SW-620, in the test with T47D, in the test with U-251 and in the test with UO-31 was > 100 µM (inactive) throughout.
Regarding `COc1cc(OCc2ccc3oc(=O)c(-c4ccccc4)nc3c2)cc(OC)c1OC`, the GI50 in the test with CCRF-CEM, with HCT-116, with HOP-62, in the test with HT-29, in the test on IGROV-1 and with K562 was > 100 µM (inactive) each time. The GI50 with MDA-N, in the test with NCI-H460, in the test on NCI/ADR-RES, in the test on OVCAR-5, with OVCAR-8 and in the test on SF-295 was > 100 µM (inactive) in each case. For the same compound, the GI50 in the test with SK-MEL-28 was > 100 µM (inactive); with SR, > 100 µM (inactive); in the test on SW-620, > 100 µM (inactive); in the test with T47D, 38.9 µM (inactive); in the test on U-251, > 100 µM (inactive); in the test on UO-31 it was > 100 µM (inactive).
`COP(=O)(C(/C=C/c1ccccc1)OC(C)=O)[C@@H]1CCCC[C@H]1N(CC(C)(C)C)C(C)=O` (stereo partly specified): the GI50 in the test on CCRF-CEM is 14.5 µM (inactive); with HCT-116 it was 10.9 µM (inactive); with HL-60, 14.6 µM (inactive); in the test on HOP-62 it was 18.2 µM (inactive); in the test with HT-29, 10.2 µM (inactive); in the test on IGROV-1, 10.6 µM (inactive). The GI50 in the test with K562 was 22.4 µM (inactive); in the test with MDA-N it was 15.6 µM (inactive); in the test on NCI-H460, 13.4 µM (inactive); in the test on NCI/ADR-RES, 15.1 µM (inactive); in the test with OVCAR-5 it was 19.2 µM (inactive); with OVCAR-8, 16.8 µM (inactive). Moreover, the GI50 in the test on SF-295 is 16.3 µM (inactive); in the test with SK-MEL-28, 20.4 µM (inactive); in the test with SR, 15 µM (inactive); in the test with SW-620, 16.7 µM (inactive); in the test with T47D, 5.87 µM (inactive); in the test on U-251, 15.8 µM (inactive). For the same compound, the GI50 in the test with UO-31 is 13.9 µM (inactive).
As to `Cc1c2oc3c(C)ccc(C(=O)NC4C(=O)NC(Cc5ccccc5)C(=O)N5CCCC5C(=O)N(C)CC(=O)N(C)C(C(C)C)C(=O)OC4C)c3nc-2c(C(=O)NC2C(=O)NC(Cc3ccccc3)C(=O)N3CCCC3C(=O)N(C)CC(=O)N(C)C(C(C)C)C(=O)OC2C)c(N)c1=O` (stereo unspecified) (I: TFP[Sar][NMeV] / II: TFP[Sar][NMeV]; ester I:1-I:C, II:1-II:C; linker I:N-II:N via Actinocin(9to1); configuration not given here), the GI50 is < 0.001 µM (active) in the test on CCRF-CEM; < 0.001 µM (active) in the test on HCT-116; < 0.001 µM (active) with HL-60; 0.0119 µM (active) in the test on HOP-62; < 0.001 µM (active) in the test with HT-29; < 0.001 µM (active) with IGROV-1. Also, the GI50 in the test with K562 was < 0.001 µM (active); in the test with MDA-N, 0.00162 µM (active); in the test with NCI-H460 it was < 0.001 µM (active); in the test with NCI/ADR-RES it was 0.439 µM (active); in the test on OVCAR-5, 0.00484 µM (active); with OVCAR-8, < 0.001 µM (active). Moreover, the GI50 in the test on SF-295, in the test with SK-MEL-28, in the test with SR, with SW-620, in the test with T47D and in the test with U-251 was < 0.001 µM (active) in each case. Besides, the GI50 with UO-31 is 0.00354 µM (active).
